According to US11008572B2, “Methods and compositions for modulating splicing” (SKYHAWK THERAPEUTICS, INC., priority 2017, dated 2021):
Like-named read-outs stand apart in the source and are kept apart here.

Tests used:
A-673 cells = experiment: Cell viability, crystal violet staining; format: cell-based
How it was run: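 Readout is absorbance at 570 nm of crystal violet, taken up in 0.1 M sodium citrate in 50% ethanol after staining with 0.5% dye in 25% methanol. Plates held 5×10^3 cells per well, and compounds were added one day after seeding for 72 hours. Data are relative to vehicle, mean±SE.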

[1] = test system: FOXM1^A2 mRNA and FOXM1^BC mRNA; experiment: Splicing assay (FOXM1), qPCR of isoform mRNAs; format: cell-based
Experimental: Various cells lines were treated with the SMSMs described herein. RNA was then isolated, cDNA synthesized, qPCR performed and the levels of various mRNA targets of the SMSMs were determined. In some instances, RNA was isolated, cDNA synthesized, qPCR performed and the levels of mRNA isoforms in the various cell samples were determined.
On the day of the experiment, a 96-well plate was seeded with the cell lines of interest. The cells were diluted with full growth media to a concentration of 2.0×10^5 cells/mL and 100 μL of cells were added to each well (20,000 cells per well). The cells were treated with a compound immediately after plating.
The compounds were then added to the cell plate using the HP compound dispenser. In the initial experiment, a top concentration of 10 μM and an 8 point 4-fold dilution scheme was used. The stock compounds were made at a concentration of 5 mM, and the DMSO concentration was set to 0.2%. DMSO was used to normalize all the compound-containing wells and the untreated cells.
The treated cells were incubated at 37° C. in a 5% CO2 incubator for the desired amount of time. Plates were placed in a plastic bag with a wet paper towel to prevent evaporation.
RNA was isolated using the Cells to CT kit (ThermoFisher, AM1728). The cells were washed once with 100 μL cold PBS. 50 μL of lysis buffer was added to each well/tube (49.5 μL lysis buffer+0.5 μL DNase I per well/tube). The lysis reaction was mixed and incubated at room temperature for 5 minutes. 5 μL of stop solution was added directly into each cell lysis reaction and mixed by pipetting up and down 5 times. The plates/tubes were incubated at room temperature for 2 minutes then placed on ice if the cDNA synthesis was to be performed immediately. Otherwise, the plates/tubes were stored at −80° C. cDNA synthesis reactions were then performed. Reverse Transcription (RT) Master mix was prepared according to the table below.
40 μL RT master mix was added to PCR tubes or plate wells. 10 μL of RNA was added to each tube/well. The RT thermal cycler program was then run and tubes or plate wells were incubated at 37° C. for 1 hour, then at 95° C. for 5 minutes to deactivate the enzyme.
The qPCR was performed using a QuantStudio 6 instrument (ThermoFisher) and the following cycling conditions and according to the tables below. All samples and standards were analyzed in triplicate. Cycle 1: 2 minutes at 50° C. Cycle 2: 10 minutes at 95° C. Cycle 3 (repeat 40 times): 15 seconds at 95° C., 1 minute at 60° C.
The determined isoform 2and isoform 1quantities were then be used to determine the isoform 2: […] at the various compound concentrations. The PPIA quantities were used in the normalization to account of cell proliferation effects of the compounds.
The dilution necessary to make the top standard is calculated. A top concentration 200,000,000 copies/μL of the stock plasmid was prepared in TE buffer. A series of 10-fold dilutions, also in TE, were then made. A total of 5 μL of each standard was used in a qPCR well to generate samples containing 109 copies, […], 10^7copies, 10^6 copies, 10^5 copies, 10^4 copies, 10^3 copies, 10^2 copies, 10^1copies, and 0 copies.
An assay to measure the FOXM1^A2 mRNA and FOXM1^BC mRNA, or MADD^WT (isoform 4) mRNA and MADD^Ex16 (isoform 3) mRNA, or MAPTau^4R mRNA and MAPTau^3R mRNA simultaneously in cell wells was performed. The RNA values were measured relative to DMSO control and also included a housekeeping gene, PPIA to ensure data was consistent. The mRNA values were measured after 24 hours of incubation with the SMSM compounds.

[2] = Homo sapiens, A673, cell viability, read-out: A-673 IC50 (nM) Cell viability
[3] = Homo sapiens, A673, cell viability, read-out: A-673 IC50 (nM), Cell viability
[4] = Homo sapiens, A673, cell viability, read-out: A-673 IC50 (nM), cell viability

How did the IC50 (A-673 cells; cell viability, read-out: A-673 IC50 (nM), Cell viability) turn out when “2-(6-(((1R,3s,5S)-8-azabicyclo[3.2.1]octan-3-yl)oxy)pyridazin-3-yl)-5-(1H-1,2,3-triazol-4-yl)phenol [compound 253]” was run?
The IC50 was 501 to 1000 nM.

What about the EC50 ([1]; FoxM1 A mRNA increase (exon excluded), 0.1-1000 nM, 24 hours, read-out: Splice EC50 (nM), FoxM1 A mRNA increase (exon excluded)) of the same molecule?
Its EC50 is 251 to 500 nM.

And the IC50 ([1]; FoxM1 BC mRNA decrease (exon included), 0.1-1000 nM, 24 hours, read-out: Splice IC50 (nM), FoxM1 BC mRNA decrease (exon included))?
Its IC50 is 251 to 500 nM.

CC1(C)CC(N(c2ccc(-c3ccc(-c4cn[nH]c4)cc3O)nn2)C2CC2)CC(C)(C)N1 [compound 129, 2-(6-(cyclopropyl(2,2,6,6-tetramethylpiperidin-4-yl)amino)pyridazin-3-yl)-5-(1H-pyrazol-4-yl)phenol] was tested. Which IC50 (A-673 cells; [2]) did it give?
Its IC50 is 251 to 500 nM.

And the IC50 ([1]; 24 h, LP-LoVo cells, 24 hours, table does not say EC50 or IC50, read-out: FOXM1)?
Its IC50 is 1 to 10 nM.

And the IC50 ([1]; 24 h, MDA-MB-231-luc cells, 24 hours, table does not say EC50 or IC50, read-out: FOXM1)?
The IC50 was less than 1 nM.

What about the IC50 ([1]; Homo sapiens, A673, 24 h, A-673 cells, 24 hours, table does not say EC50 or IC50, read-out: FOXM1) of the same molecule?
Its IC50 is less than 1 nM.

And the IC50 ([1]; Homo sapiens, A-375, 24 h, A-375 cells, 24 hours, table does not say EC50 or IC50, read-out: FOXM1)?
Its IC50 is less than 1 nM.

And the IC50 ([1]; Homo sapiens, MDA-MB-157, 24 h, MDA-MB-157 cells, 24 hours, table does not say EC50 or IC50, read-out: FOXM1)?
Its IC50 is less than 1 nM.

And the IC50 ([1]; Homo sapiens, SK-OV-3, 24 h, SKOV3 cells, 24 hours, table does not say EC50 or IC50, read-out: FOXM1)?
Its IC50 is 1 to 10 nM.

And the IC50 ([1]; Homo sapiens, Z-138, 24 h, Z-138 cells, 24 hours, table does not say EC50 or IC50, read-out: FOXM1)?
Its IC50 is less than 1 nM.

With CC1(C)CC(N(c2ccc(-c3ccc(-c4cn[nH]c4)cc3O)nn2)C2CCC2)CC(C)(C)N1 [compound 130, 2-(6-(cyclobutyl(2,2,6,6-tetramethylpiperidin-4-yl)amino)pyridazin-3-yl)-5-(1H-pyrazol-4-yl)phenol] as the molecule, how does the IC50 (A-673 cells; [2]) read?
Its IC50 is greater than 1000 nM.

What about the IC50 ([1]; FoxM1 BC mRNA decrease (exon included), read-out: Splice IC50 (nM) FoxM1 BC mRNA decrease (exon included)) of the same molecule?
Its IC50 is greater than 1000 nM.

And the EC50 ([1]; read-out: Splice EC50 (nM) FoxM1 A mRNA increase (exon excluded))?
The EC50 was greater than 1000 nM.

How did the IC50 (A-673 cells; [3]) turn out when CN(c1ccc(-c2ccc(-c3ccn(CF)c(=O)c3)cc2O)nn1)[C@@H]1C[C@H]2CCC[C@@H](C1)N2 [compound 291, 4-(4-(6-(((1R,3s,5S)-9-azabicyclo[3.3.1]nonan-3-yl)(methyl)amino)pyridazin-3-yl)-3-hydroxyphenyl)-1-(fluoromethyl)pyridin-2(1H)-one] was run?
Its IC50 is less than 10 nM.

Which IC50 (A-673 cells; [3]) does the source give for COc1cc(-c2ccc(-c3ccc(N(C)[C@@H]4C[C@H]5CCC[C@@H](C4)N5)nn3)c(O)c2)ccc1C [compound 292, 4-(6-(((1R,3s,5S)-9-azabicyclo[3.3.1]nonan-3-yl)(methyl)amino)pyridazin-3-yl)-3′-methoxy-4′-methyl-[1,1′-biphenyl]-3-ol] here?
Its IC50 is greater than 1000 nM.

For CN(c1ccc(-c2ccc(-c3cc[nH]c(=O)c3)cc2O)nn1)[C@@H]1C[C@H]2CCC[C@@H](C1)N2 [compound 293, 4-(4-(6-(((1R,3s,5S)-9-azabicyclo[3.3.1]nonan-3-yl)(methyl)amino)pyridazin-3-yl)-3-hydroxyphenyl)pyridin-2(1H)-one], which IC50 (A-673 cells; [3]) is on record?
The IC50 was 10 to 100 nM.

For CNC(=O)c1cc2cc(O)c(-c3ccc(N(C)[C@@H]4C[C@H]5CCC[C@@H](C4)N5)nn3)cc2o1 [compound 294, 6-(6-(((1R,3s,5S)-9-azabicyclo[3.3.1]nonan-3-yl)(methyl)amino)pyridazin-3-yl)-5-hydroxy-N-methylbenzofuran-2-carboxamide], which IC50 (A-673 cells; [3]) is on record?
The IC50 was 501 to 1000 nM.

With CN(C)C(=O)c1cc2cc(O)c(-c3ccc(N(C)[C@@H]4C[C@H]5CCC[C@@H](C4)N5)nn3)cc2o1 [compound 295, 6-(6-(((1R,3s,5S)-9-azabicyclo[3.3.1]nonan-3-yl)(methyl)amino)pyridazin-3-yl)-5-hydroxy-N,N-dimethylbenzofuran-2-carboxamide] as the molecule, how does the IC50 (A-673 cells; [3]) read?
Its IC50 is 251 to 500 nM.

How did the IC50 (A-673 cells; [3]) turn out when CNC(=O)c1cc2cc(-c3ccc(N(C)[C@@H]4C[C@H]5CCC[C@@H](C4)N5)nn3)c(O)cc2o1 [compound 297, 5-(6-(((1R,3s,5S)-9-azabicyclo[3.3.1]nonan-3-yl)(methyl)amino)pyridazin-3-yl)-6-hydroxy-N-methylbenzofuran-2-carboxamide] was run?
Its IC50 is 10 to 100 nM.

For CN(C)C(=O)c1cc2cc(-c3ccc(N(C)[C@@H]4C[C@H]5CCC[C@@H](C4)N5)nn3)c(O)cc2o1 [compound 298, 5-(6-(((1R,3s,5S)-9-azabicyclo[3.3.1]nonan-3-yl)(methyl)amino)pyridazin-3-yl)-6-hydroxy-N,N-dimethylbenzofuran-2-carboxamide], which IC50 (A-673 cells; [3]) is on record?
Its IC50 is 10 to 100 nM.

Which IC50 (A-673 cells; [3]) does the source give for CN(c1ccc(-c2cc3cc(C(=O)NC4CC4)oc3cc2O)nn1)[C@@H]1C[C@H]2CCC[C@@H](C1)N2 [compound 299, 5-(6-(((1R,3s,5S)-9-azabicyclo[3.3.1]nonan-3-yl)(methyl)amino)pyridazin-3-yl)-N-cyclopropyl-6-hydroxybenzofuran-2-carboxamide] here?
Its IC50 is 10 to 100 nM.

Which IC50 (A-673 cells; [3]) does the source give for CN(c1ccc(-c2ccc(-c3cc(=O)n(C)cn3)cc2O)nn1)[C@@H]1C[C@H]2CCC[C@@H](C1)N2 [compound 300, 6-(4-(6-(((2R,3s,5S)-9-azabicyclo[3.3.1]nonan-3-yl)(methyl)amino)pyridazin-3-yl)-3-hydroxyphenyl)-3-methylpyrimidin-4(3H)-one] here?
Its IC50 is 10 to 100 nM.

How did the IC50 (A-673 cells; [3]) turn out when CN(c1ccc(-c2ccc(-c3cnn(C(F)F)c3)cc2O)nn1)[C@@H]1C[C@H]2CCC[C@@H](C1)N2 [compound 301, 2-(6-(((1R,3s,5S)-9-azabicyclo[3.3.1]nonan-3-yl)(methyl)amino)pyridazin-3-yl)-5-(1-(difluoromethyl)-1H-pyrazol-4-yl)phenol] was run?
Its IC50 is 10 to 100 nM.

For C[C@]12CC[C@](C)(C[C@@H](N(c3ccc(-c4ccc(-c5cn[nH]c5)cc4O)nn3)C3CC3)C1)N2 [compound 302, 2-(6-(cyclopropyl((1R,3s,5S)-1,5-dimethyl-8-azabicyclo[3.2.1]octan-3-yl)amino)pyridazin-3-yl)-5-(1H-pyrazol-4-yl)phenol], which IC50 (A-673 cells; [3]) is on record?
Its IC50 is 10 to 100 nM.

With [2H]C([2H])([2H])c1ncc(-c2ccc(-c3ccc(N(C)[C@H]4C[C@]5(C)CC[C@](C)(C4)N5)nn3)c(O)c2)o1 [compound 303, 2-(6-(((1R,3s,5S)-1,5-dimethyl-8-azabicyclo[3.2.1]octan-3-yl)(methyl)amino)pyridazin-3-yl)-5-(2-(methyl-d3)oxazol-5-yl)phenol] as the molecule, how does the IC50 (A-673 cells; [3]) read?
Its IC50 is 10 to 100 nM.

How did the IC50 (A-673 cells; [3]) turn out when CN(c1ccc(-c2ccc(-c3ccn(C)c(=O)n3)cc2O)nn1)[C@H]1C[C@]2(C)CCC[C@](C)(C1)N2 [compound 305, 4-(4-(6-(((1R,3s,5S)-1,5-dimethyl-9-azabicyclo[3.3.1]nonan-3-yl)(methyl)amino)pyridazin-3-yl)-3-hydroxyphenyl)-1-methylpyrimidin-2(1H)-one] was run?
The IC50 was 101 to 250 nM.

What does the source list for CN(c1ccc(-c2ccc(-c3cc[nH]c(=O)c3)cc2O)nn1)[C@H]1C[C@]2(C)CCC[C@](C)(C1)N2 [compound 306, 4-(4-(6-(((1R,3s,5S)-1,5-dimethyl-9-azabicyclo[3.3.1]nonan-3-yl)(methyl)amino)pyridazin-3-yl)-3-hydroxyphenyl)pyridin-2(1H)-one]?
IC50 (A-673 cells; [4]): < 10 nM; IC50 (A-673 cells; Homo sapiens, A673, read-out: A-673 cell viability (IC50)): < 3 nM

Which IC50 (A-673 cells; [4]) does the source give for CN(c1ccc(-c2ccc(-c3ccnc(OC(F)F)c3)cc2O)nn1)[C@H]1C[C@]2(C)CCC[C@](C)(C1)N2 [compound 308, 5-(2-(difluoromethoxy)pyridin-4-yl)-2-(6-(((1R,3s,5S)-1,5-dimethyl-9-azabicyclo[3.3.1]nonan-3-yl)(methyl)amino)pyridazin-3-yl)phenol] here?
Its IC50 is 501 to 1000 nM.
